molecular target: MAPK14 (human) (UniProt Q16539); test: Inhibition of MAPK14 Kinase Activity; conditions: not given
Sequence (Q16539 whole entry, looked up): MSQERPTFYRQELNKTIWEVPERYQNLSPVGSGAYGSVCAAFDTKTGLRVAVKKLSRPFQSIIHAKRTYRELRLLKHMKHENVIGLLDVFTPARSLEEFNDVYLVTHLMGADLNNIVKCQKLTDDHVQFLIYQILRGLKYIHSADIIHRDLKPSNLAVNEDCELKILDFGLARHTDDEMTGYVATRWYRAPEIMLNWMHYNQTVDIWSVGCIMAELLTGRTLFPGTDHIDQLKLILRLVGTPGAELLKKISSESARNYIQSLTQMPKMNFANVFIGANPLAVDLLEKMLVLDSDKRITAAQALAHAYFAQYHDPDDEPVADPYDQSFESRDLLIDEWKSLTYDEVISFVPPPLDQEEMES

| IC50 | SMILES |
| --- | --- |
| < 50 nM | CS(=O)(=O)N1CCC(Nc2ncc3cc(Oc4ccc(F)cc4F)ncc3n2)CC1 |
| < 500 nM | CC(C)Nc1ncc2cc(Oc3ccc(F)cc3F)ncc2n1 |

molecular target: CDK2 (human) (UniProt P24941); test: Enzyme Assay; conditions: concentration not given here

| inhibition | SMILES |
| --- | --- |
| 18% | O=S(=O)(c1cccc2cnccc12)N1CCCNCC1 |

molecular target: PIK3CA (human) (UniProt P42336); test: Inhibition of PIK3CA Kinase Activity; conditions: not given
Sequence (P42336 whole entry, looked up): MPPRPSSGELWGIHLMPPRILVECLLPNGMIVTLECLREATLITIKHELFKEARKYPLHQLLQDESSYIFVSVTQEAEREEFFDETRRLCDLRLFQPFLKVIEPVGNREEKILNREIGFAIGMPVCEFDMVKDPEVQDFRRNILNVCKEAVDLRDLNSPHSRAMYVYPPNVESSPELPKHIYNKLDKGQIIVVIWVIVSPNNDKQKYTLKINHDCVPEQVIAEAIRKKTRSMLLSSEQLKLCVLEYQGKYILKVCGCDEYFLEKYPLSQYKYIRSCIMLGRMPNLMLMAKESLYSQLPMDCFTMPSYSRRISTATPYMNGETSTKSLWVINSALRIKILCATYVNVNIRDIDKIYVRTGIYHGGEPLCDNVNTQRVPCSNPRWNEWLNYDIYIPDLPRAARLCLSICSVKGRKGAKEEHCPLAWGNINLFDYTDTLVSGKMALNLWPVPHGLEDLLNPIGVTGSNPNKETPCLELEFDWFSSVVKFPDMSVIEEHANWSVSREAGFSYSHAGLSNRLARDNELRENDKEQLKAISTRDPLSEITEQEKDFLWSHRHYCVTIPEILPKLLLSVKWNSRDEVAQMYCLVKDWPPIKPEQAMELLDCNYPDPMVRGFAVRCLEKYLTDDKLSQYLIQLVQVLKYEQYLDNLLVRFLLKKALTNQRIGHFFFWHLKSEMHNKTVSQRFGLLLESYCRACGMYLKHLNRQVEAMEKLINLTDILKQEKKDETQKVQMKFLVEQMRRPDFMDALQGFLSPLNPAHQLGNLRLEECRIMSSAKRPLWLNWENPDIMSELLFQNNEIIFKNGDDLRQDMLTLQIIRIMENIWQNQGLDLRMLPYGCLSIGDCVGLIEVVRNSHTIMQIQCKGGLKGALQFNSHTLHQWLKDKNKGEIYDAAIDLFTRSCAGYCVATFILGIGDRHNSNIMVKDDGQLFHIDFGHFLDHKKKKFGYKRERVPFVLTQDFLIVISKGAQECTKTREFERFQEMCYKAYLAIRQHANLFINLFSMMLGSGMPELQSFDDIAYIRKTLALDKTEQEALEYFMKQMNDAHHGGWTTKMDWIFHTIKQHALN

| SMILES | IC50 |
| --- | --- |
| O=C(Nc1ccc(C(=O)NCCN2CCCC2)cc1)Nc1ccc(-c2nc(O[C@H]3CCOC3)nc(N3CCOCC3)n2)cc1 | 1.4 nM |
| Oc1cccc(-c2nc(N3CCOCC3)c3sccc3n2)c1 | 2 nM |
| COc1ccccc1C1C2=C(CC(C)(C)CC2=O)Nc2c1c(C(C)(C)C)nn2-c1ccc(Cl)c(Cl)c1 (stereo not drawn) | 7000 nM |
| CNC(=O)Nc1ccc(-c2nc(N3CC4CCC(C3)O4)c3cnn([C@H]4CC[C@@H](O)CC4)c3n2)cc1 | 227 nM |
| CC1(C)CC(=O)C2=C(C1)Nc1c(c(C3CCCCC3)nn1-c1cccc(F)c1)C2c1ccc(C(F)(F)F)cc1 (stereo not drawn) | 8000 nM |
| COC[C@H]1OC(=O)c2coc3c2[C@@]1(C)C1=C(C3=O)[C@@H]2CCC(=O)[C@@]2(C)C[C@H]1C(=O)OCc1cc(=O)oc2cc(N(C)C)ccc12 | 10.1 nM |
| CN(COC(=O)[C@@H]1CC(=O)c2coc3c2[C@@]1(C)c1ccc2c(c1C3=O)CCC2=O)c1ccc([N+](=O)[O-])c2nonc12 | 9.6 nM |
| COc1ccc2c(c1)c(C=C1Oc3cc(O)cc(O)c3C1=O)c(C)n2CCCN1CCN(CCO)CC1 | 7 nM |
| CNC(=O)Nc1ccc(-c2nc(N3CC4CCC(C3)O4)c3cnn([C@H]4CC[C@@H](OC)CC4)c3n2)cc1 | 705 nM |
| COc1ccc2c(c1)c(C=C1Oc3cc(O)cc(O)c3C1=O)c(C)n2CCCN(C)C | 5 nM |
| CN[C@H](C)c1ccc(S(=O)(=O)Nc2cc(-c3ccc4nc(NC(C)=O)cn4n3)cnc2Cl)cc1 | 6 nM |
| c1ccc(CN2CCC(n3ncc4c(N5CCOCC5)nc(-c5cc6ccccc6[nH]5)nc43)CC2)cc1 | 1110 nM |

Other lines, results leading:

| IC50 | SMILES |
| --- | --- |
| 15 nM | COc1ncc2cc1NS(=O)(=O)c1ccc(F)c(c1)C(=O)NCc1cncc(c1)-c1ccnc3c1SC2=C3 |
| 0.1 nM | COc1ncc2cc1NS(=O)(=O)c1ccc(Cl)c(c1)C(=O)NCC1=CC=C(S1)c1ncnc3c1SC2=C3C |
| 130 nM | N#Cc1cccc(-c2c[nH]c3ncc(-c4cnc(N)c(S(=O)(=O)N5CCOCC5)c4)cc23)c1 |
| 1600 nM | COc1ccc(-c2c[nH]c3ncc(-c4cncc(NS(=O)(=O)c5ccccc5)c4)cc23)cc1OC |
| 44 nM | O=C1NCc2cncc(c2)-c2ncnc3c2SC(=C3)c2cncc(c2)NS(=O)(=O)c2cccc1c2 |
| 12000 nM | CN(C)CC=CC(=O)Nc1cccc(-c2cccc(Oc3cc(=O)[nH]c4ccccc34)c2)c1 |
| 10000 nM | CC(C)(C)CNc1ncccc1CNc1cccc(Oc2cc(=O)[nH]c3ccccc23)c1 |
| 11800 nM | CC(C)(C)OC(=O)n1ccc2cc(CNc3cccc(Oc4cc(=O)[nH]c5ccccc45)c3)ccc21 |
| 700 nM | N[C@H]1CCC[C@@H](CC(=O)Nc2cccc(-c3nc(-c4cccc(CO)c4)cc(N4CCOCC4)n3)c2)C1 |
| 3420 nM | O=c1cc(Oc2cccc(NCc3ccc4[nH]ccc4c3)c2)c2ccccc2[nH]1 |

molecular target: MAPK14 (human) (UniProt Q16539); test: Assessment of MAPK14 Kinase Activity; conditions: not given

| SMILES | IC50 |
| --- | --- |
| O=C(Nc1ccc(Oc2ccnc(NC[C@@H]3CCCO3)n2)c2ccccc12)c1cc(F)cc(N2CCCCC2)c1 | 2.3 nM |
| CONC(=O)c1ccc(C)c(Nc2noc(-c3ccccc3)n2)c1 | < 50 nM |
| Cc1c(NC(=O)Nc2cc(C(C)(C)C)nn2-c2ccc(F)cc2)sc(CN2CCOCC2)c1Cl | < 5000 nM |
| CC1CCN(c2[nH]nc(-c3ccc(Cl)cc3)c2-c2ccncc2)CC1 | 130 nM |
| Cc1ccc(C(=O)NC2CC2)cc1Nc1nc(-c2ccccc2)cs1 | > 100 nM |
| CC[C@@H](NC(=O)c1cn2ncnc(Nc3cc(NC(=O)c4cc(F)cc(N5CCOCC5)c4)ccc3C)c2c1C)OC | 2 nM |

The remaining lines, values ahead:

| IC50 | SMILES |
| --- | --- |
| < 50 nM | CS(=O)(=O)N1CCC(Nc2ncc3cc(Oc4ccc(F)cc4F)ncc3n2)CC1 |
| < 500 nM | CC(C)Nc1ncc2cc(Oc3ccc(F)cc3F)ncc2n1 |
| 81 nM | Cc1ncccc1-c1nnc2c(F)c(-c3cc(C(=O)NC4CC4)cc(F)c3C)c(F)cn12 |
| 50 to 100 nM | Cc1cccc(-c2nc(Nc3cc(C(=O)NC4CC4)ccc3C)sc2C(=O)NCc2ccccc2)c1 |
| 18.7 nM | CN(CCO)c1nccc(Oc2ccc(NC(=O)c3cc(F)cc(N4CCOCC4)c3)c3ccccc23)n1 |
| 190 nM | Clc1ccc(-c2n[nH]c(N3CCc4ccccc4C3)c2-c2ccncc2)cc1 |

same assay, conditions: concentration not given here

| inhibition | SMILES |
| --- | --- |
| -8% | O=S(=O)(c1cccc2cnccc12)N1CCCNCC1 |
